Results on two compounds are retold here after article PMC11680790, “Structural and functional determination of peptide versus small molecule ligand binding at the apelin receptor” (Nature Communications, 2024).

One data set deals with rat. On the set-up: method as in Yang et al., Circulation. 2017. Conditions: 21 days, rats; ref Yang et al., Circulation. 2017; cited from earlier work.
The subject of the next data set is anaesthetised rats. Also on record: method as in 2 sources, ref Read et al. Biochem Pharmacol 2016 ||| ref Yang et al., Circulation. 2017. Conditions: cited from earlier work.
A further data set deals with T1, human apelin receptor (Homo sapiens, UniProt P35414).
T1 sequence (P35414 1-380): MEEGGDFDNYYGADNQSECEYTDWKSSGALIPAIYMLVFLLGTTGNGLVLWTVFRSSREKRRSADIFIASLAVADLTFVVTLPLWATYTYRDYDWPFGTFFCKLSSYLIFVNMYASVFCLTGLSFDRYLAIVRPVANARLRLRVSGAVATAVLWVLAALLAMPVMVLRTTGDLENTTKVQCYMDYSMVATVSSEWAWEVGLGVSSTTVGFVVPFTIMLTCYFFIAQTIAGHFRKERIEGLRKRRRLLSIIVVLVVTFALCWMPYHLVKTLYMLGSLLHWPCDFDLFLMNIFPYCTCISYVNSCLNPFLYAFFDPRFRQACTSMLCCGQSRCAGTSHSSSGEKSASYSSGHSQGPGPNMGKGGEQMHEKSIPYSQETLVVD
Also on record: method as in 2 sources, ref Read et al., 2016, PMID:27475715 ||| ref Read et al. Biochem Pharmacol. 2016. Conditions: cited from earlier work.

Data set [1] deals with T2, wild-type apelin receptor (Homo sapiens, UniProt P35414).
T2 construct: expressed in transfected cells; host or cells: CHO-K1 (ECACC 85051005), transient, pcDNA3.1
T2 sequence (P35414 1-380): T1 sequence (P35414 1-380)
Briefly: DiscoveRx cAMP assay, CHO-K1 transiently transfected, wild-type. The class given is cell-based. An excerpt: (1 picture or pasted object on this page, not shown here)

A further data set deals with T/M89 apelin receptor. In words: DiscoveRx cAMP assay, CHO-K1 transiently transfected, T/M89. Format: cell-based, human. An excerpt: (§1) (A) ERK1/2 and (B) eNOS in PAECs and ERK1/2 in (C) control and (D) PAH PASMcs following treatment with 0.1% serum (control), […]
(§2) measures with Tukey’s post-test for multiple comparisons. […]
(§3) difference in down-stream signalling with the endogenous ligands used in our study.
(§4) However, dynamic mass redistribution assays are a widely used (over 400 references in Pubmed) and generally accepted robust label-free technology to measure ligand-induced changes in the mass of cells and provides an integrated cellular response, comprising multiple pathways and cellular events. We believe
(§5) DMR is robust for testing the function of apelin receptor variants, particularly when combined with our radioligand binding assays. […]
(§6) recommended.’ We thank the referee for the recommendation but we were not successful in generating additional data in the apelin receptor variants with downstream signalling functional assays that we carried […]
(§7) We have tried to test the function of apelin receptor variants in a DiscoveRx cAMP assay. The figure below […]
(§8) Provided in the assay kit, CHO-K1 cells stably expressing the apelin receptor (shown in green) responded as […]
(§9) the levels of forskolin stimulated cAMP accumulation and decreasing the fluorescent signal in relative li ght units (RLU). CHO-K1 cells transiently transfected in-house with either wild-type (black), T/M89 (red), or […]

For data set [2], the target named is T3, R/H168^4.64 variant NxStaR (Homo sapiens, UniProt P35414, F214L/I224A/N112A/R168H/S298A/T207M/T87V).
T3 sequence (P35414 1-380 T87V/N112A/R168H/T207M/F214L/I224A/S298A): T1 sequence (P35414 1-380) with T87V, N112A, R168H, T207M, F214L, I224A, S298A
Briefly: SPR, pH dependence (Biacore 8K+), R/H168^4.64 NxStaR. Conditions: 5% DMSO, 10 °C, single determination.
Method: (§10) Both were equipped with a NTA sensor chip (Cytiva). […] 0.5 M EDTA pH 8.0 was injected for 60 s at 5 µL/min followed by a 60 s injection of run buffer containing 0.5 mM NiCl2. The surface was activated with a 1:1 mixture of 0.1 M NHS and 0.5 M EDC at a flow rate of 10 µL/min for 420 s. The receptors were injected at a concentration of 1 µM at 5 µL/min until a surface response of 5000 RU was achieved. The surface was equilibrated for 12 h in buffer before commencing experiments.
(§11) Compound and peptide binding was measured in pH 7.5 buffer previously described and in buffer at pH 6.0 comprising of 0.025 M MES, pH 6.0, 0.15 M NaCl, 0.02% DDM, 5% DMSO. The analyses were run in single-cycle format with four concentration points in a twofold dilution series. […] The association phase was 60 s for each concentration and the dissociation phase was 300 s. There were 4 blank cycles between compound injections.
(§12) The data were processed using Biacore T200 Evaluation Software (Version 2.0, Cytiva) and Biacore Insight Evaluation Software (Version 5.0, Cytiva). Sensorgrams were reference and blank subtracted before fitting with 1:1 binding model which accounted for drift, bulk shift and mass transport.

The next data set concerns apelin receptor. Briefly: DiscoveRx cAMP assay, CHO-K1 stably expressing the apelin receptor. The class given is cell-based, human. Conditions: stably expressing CHO-K1, forskolin stimulated cAMP.
Text: as §1, §2, §3, §4, §5, §6, §7, §8, §9

The target of the next data set is T4, apelin receptor NxStaR (Homo sapiens, UniProt P35414, F214L/I224A/N112A/S298A/T207M/T87V).
T4 sequence (P35414 1-380 T87V/N112A/T207M/F214L/I224A/S298A): T1 sequence (P35414 1-380) with T87V, N112A, T207M, F214L, I224A, S298A
In words: SPR, pH dependence (Biacore 8K+), NxStaR. Conditions: 5% DMSO, 10 °C, single determination.

In a further data set the test system is R/H168 apelin receptor. In words: DiscoveRx cAMP assay, CHO-K1 transiently transfected, R/H168. The class given is cell-based, human.
Text: as §1, §2, §3, §4, §5, §6, §7, §8, §9

A further data set in a line: Chrom logD. Format: physicochemical. Conditions: chromatographic.
Data set [3] deals with apelin receptor in human, rat and mouse heart. On the set-up: method as in Read et al. Biochem Pharmacol. 2016. Conditions: ref Read et al. Biochem Pharmacol. 2016; cited from earlier work.
[4] abbreviates: ref Read et al. Biochem Pharmacol. 2016.

Where a chain is given by its changes, count along the chain named.

Method for apelin receptor NxStaR: as §10, §11, §12

For the compound “NCLQRRCMPLHSRVPFP [ELA, endogenous peptide Elabela/Toddler]”, the “blood pressure, chronic ELA treatment” value in the data set with rat is recorded as “did not significantly affect systemic blood pressure”. The systemic vasodilatation result in the data set on anaesthetised rats (carotid artery catheterisation, ref Yang et al., Circulation. 2017) is “caused acute systemic vasodilatation”.

For `CCC(CC)n1c(Cc2cccs2)nc2cc(C(=O)N[C@H](CC(=O)O)CC(C)C)ccc21` [CMF-019], at human apelin receptor (setting [4]), the “bias factor cAMP vs receptor internalisation” value was ~ 5000. Also, the “bias factor cAMP vs β-arrestin recruitment” value at human apelin receptor (setting [4]) was ~ 400. Besides, the “cAMP potency versus [Pyr1]apelin-13” value on human apelin receptor (setting [4]) was “comparable potency to [Pyr1]apelin-13”. Further, the “bias towards G protein pathway over beta-arrestin” value at human apelin receptor (ref Read et al., 2016, PMID:27475715) is reported as 2250. Besides, the cAMP response result was “did not show an observable response” in data set [1], “did not show an observable response” with T/M89 apelin receptor, “reducing” in the data set on apelin receptor and “did not show an observable response” with R/H168 apelin receptor. Further, the Kd is 0.0146 µM in [2] (pH 6.0 (MES), 0.02% DDM); 0.0687 µM in data set [2] (pH 7.5, 0.02% DDM); 0.0034 µM at apelin receptor NxStaR (pH 6.0 (MES), 0.02% DDM); 0.0061 µM on apelin receptor NxStaR (pH 7.5, 0.02% DDM). Moreover, the “Chrom logD” value in “Chrom logD” stood at 3.14. Moreover, the “competition for specific binding of apelin” value in [3] is on record as “competes for the specific binding of apelin”. Besides, the “stroke volume and cardiac output” value with anaesthetised rats (anaesthetised rats, ref Read et al. Biochem Pharmacol 2016) was “increased stroke volume and cardiac output”. Also, the peripheral arterial pressure result with anaesthetised rats (i.v. CMF-019 potassium salt, anaesthetised rat, ref Read et al. Biochem Pharmacol 2016) is reported as “reduced peripheral arterial pressure”. Further, the left ventricular contractility entry with anaesthetised rats (i.v. CMF-019 potassium salt, anaesthetised rats, ref Read et al. Biochem Pharmacol 2016) was “dose dependent increases in left ventricular contractility”.
